Measured values from ChEMBL document CHEMBL5727930, “Indazole containing macrocycles and therapeutic uses thereof” (2020).

Target: Dual specificity tyrosine-phosphorylation-regulated kinase 1A (Homo sapiens, UniProt Q13627)
Assay: Kinase Assay: The DYRK1A kinase assay was run using the Ser/Thr 18 peptide Z-lyte assay kit according to manufacturer's instructions (Life Technologies—a Division of Thermo-Fisher). This is a non-radioactive assay using fluorescence resonance energy transfer (FRET) between coumarin and fluorescein to detect kinase activity which is represented as a ratio of coumarin emission/fluorescein emission.Briefly, recombinant DYRK1A kinase, ATP and Ser/Thr peptide 18 were prepared in 1× Kinase buffer to final concentrations of 0.19 μg/mL, 30 μM, and 4 μM respectively. The mixture was allowed to incubate with the representative compounds for one hour at room temperature. All reactions were performed in duplicate. Unphosphorylated (“0% Control”) and phosphorylated (“100% control”) forms of Ser/Thr 18 served as control reactions. Additionally, an 11-point dose-response curve of Staurosporine (1 uM top) was run to serve as a positive compound control.

Row | Structure (SMILES) | EC50
1 | CN1CCCCN(C)c2nccc3[nH]c(nc23)-c2n[nH]c3ccc(cc23)-c2cncc(c2)C1 | 2 nM
2 | O=C1CCc2cccc(c2)-c2cncc(c2)NC(=O)c2n[nH]c3ccc(cc23)-c2cncc(c2)CN1 | 9 nM

Continued, values first:

Row | EC50 | Structure (SMILES)
3 | 5 nM | O=C1COc2cccc(c2)-c2cncc3[nH]c(nc23)-c2n[nH]c3ccc(cc23)-c2cncc(c2)N1
4 | 3 nM | c1cc2cc(c1)-c1cncc3[nH]c(nc13)-c1n[nH]c3ccc(cc13)-c1cncc(c1)CNC2
5 | 10 nM | O=C1CCc2cccc(c2)-c2cncc3[nH]c(nc23)-c2n[nH]c3ccc(cc23)-c2cncc(c2)N1
